Measured values reported in patent publication US20180311342A1, “IMMUNOSTIMULATING AGENT” (AJINOMOTO CO., INC., priority 2017, published 2018).

What was measured:
Assay type in all cases: in vivo, BALB/c mice
[1] = test system: anti-OVA-specific IgG1 subclass antibody; assay: Adjuvant activity test: anti-OVA-specific IgG1 subclass antibody in serum of OVA-immunized mice (ELISA); conditions: after secondary immunization, serum 2 weeks later; OVA 5 μg + compound 0.256 μmol in 5% αCD-added saline (Addavax mixed with saline at 1:1), dorsal-subcutaneous; compared to OVA single administration group
Experimental: (§1) 8-Week-old female BALB/c mice were divided into groups (N=6), and each group was primarily immunized by dorsal-subcutaneous administration of (1) ovalbumin (OVA) (5 μg) dissolved in saline as an antigen (OVA single administration group), (2) OVA 5 μg and Addavax™ (mixed with saline at 1:1) dissolved in saline (Addavax™ administration group) as positive control adjuvant, (3) OVA 5 μg and SZ137 0.256 μmol dissolved or dispersed in 5% α-cyclodextrin (hereinafter to be simply referred to as αCD)-added saline (SZ137 administration group), (4) OVA (5 μg) and SZ138 (0.256 μmol) dissolved or dispersed in 5% αCD-added saline (SZ138 administration group), (5) OVA (5 μg) and SZ142 (0.256 μmol) dissolved or dispersed in 5% αCD-added saline (SZ142 administration group), (6) OVA (5 μg) and SZ144 (0.256 μmol) dissolved or dispersed in 5% αCD-added saline (SZ144 administration group), (7) OVA (5 μg) and SZ145 (0.256 μmol) dissolved or dispersed in 5% αCD-added saline (SZ145 administration group), (8) OVA (5 μg) and SZ146 (0.256 μmol) dissolved or dispersed in 5% αCD-added saline (SZ146 administration group), (9) OVA (5 μg) and SZ147 (0.256 μmol) dissolved or dispersed in 5% αCD-added saline (SZ147 administration group), (10) OVA (5 μg) and SZ148 (0.256 μmol) dissolved or dispersed in 5% αCD-added saline (SZ148 administration group), each per mouse. Two week later, the secondary immunization was carried out by dorsal-subcutaneous administration of solutions or dispersions similar to those of the above-mentioned (1)-(10) again. Two weeks from the secondary immunization, the whole blood was extracted under anesthesia, and the obtained serum sample was measured for anti-OVA-specific IgG1 subclass antibody, anti-OVA-specific IgG2a subclass antibody, and anti-OVA-specific IgE antibody.
(§2) The measurement method of the anti-OVA-specific IgG1 subclass antibody and anti-OVA-specific IgG2a subclass antibody in Experimental Example 1 and the following Experimental Examples 2-10 is as follows.
(§3) To a 96 well plate was added 5 μg/ml OVA at 100 µl/well, and the mixture was incubated at 4° C. overnight. After incubation, the mixture was washed three times with 200 μl of PBS-T (PBS (phosphate buffered saline)+0.05% (v/v) Tween 20) per well, and blocked with 100 μl of 5% FCS (fetal calf serum)/PBS solution per well at room temperature for 1-2 hr. Thereafter, the mixture was washed three times with PBS-T (200 μl/well), a diluted serum sample (100 l/well) or the same amount of 5% FCS/PBS solution as a control was added, and the mixture was incubated at 37° C. for 1 hr. To calculate concentration of the antibody, the standard of an anti-OVA-specific IgG1 subclass antibody diluted with 2% FCS/PBS solution was added at 100 ng/ml, 50 ng/ml, 25 ng/ml, 12.5 ng/ml, 6.25 ng/ml, 3.125 ng/ml, 1.56 ng/ml, 0.781 ng/ml, 0.391 ng/ml, 0.195 ng/ml, 0.098 ng/ml, 0 ng/ml, per 1 well. When an anti-OVA-specific IgG2a subclass antibody was measured, the standard of an anti-OVA-specific IgG2a subclass antibody was added at 50 ng/ml, 25 ng/ml, 12.5 ng/ml, 6.25 ng/ml, 3.125 ng/ml, 1.56 ng/ml, 0.781 ng/ml, 0.391 ng/ml, 0.195 ng/ml, 0.098 ng/ml, 0.049 ng/ml, 0 ng/ml, per 1 well. Thereafter, similar to the samples, the mixture was washed five times with PBS-T (200 μl/well), a diluted biotinylated anti-mouse IgG1 antibody and IgG2a antibody were added (100 μl/well), and the mixture was incubated at 37° C. for 45 min. Thereafter, the mixture was washed five times with PBS-T (200 μl/well), a diluted anti-biotin-HRP antibody was added (100 μl/well), and the mixture was incubated at 37° C. for another 30 min. Thereafter, the mixture was washed five times with PBS-T (200 μl/well), TMB substrate solution was added (100 μl/well), and the mixture was incubated at room temperature for 10-15 min. Thereafter, a reaction quenching liquid (2N sulfuric acid solution) was added (50 l/well) to discontinue a color developing reaction, and the absorbance (OD Value=450 nm) was measured by a microplate reader. […]

[2] = test system: anti-OVA-specific IgG2a subclass antibody; assay: Adjuvant activity test: anti-OVA-specific IgG2a subclass antibody in serum of OVA-immunized mice (ELISA); conditions: after secondary immunization, serum 2 weeks later; OVA 5 μg + compound 0.256 μmol in 5% αCD-added saline (Addavax mixed with saline at 1:1), dorsal-subcutaneous; compared to OVA single administration group
Experimental: as §1, §2, §3

[3] = test system: anti-OVA-specific IgE antibody; assay: Allergy inducing activity test: anti-OVA-specific IgE antibody in serum of OVA-immunized mice (DS mouse IgE ELISA (OVA) kit)
Experimental: as §1
The measurement method of the anti-OVA-specific IgE antibody in Experimental Example 1 and the following Experimental Examples 2-5, 8-10 is as follows.
DS mouse IgE ELISA (OVA) kit manufactured by DS Pharma Biomedical Co., Ltd. was used. The protocol is briefly shown below.
The serum sample and a standard reagent for drawing an analytical curve are diluted with a buffer and, after stirring, left standing at room temperature for 10 min. The sample and the standard solution are added to a plate bound with an IgE capture antibody in advance and, after stirring, the mixture is left standing at room temperature for 60 min. The mixture is washed three times with wash, HRP-labeled OVA is added, and the mixture is left standing at room temperature for 30 min. The mixture is washed three times with wash, a substrate solution is added, and the mixture is left standing in dark at room temperature for 30 min. A reaction quenching liquid is added, the mixture is stirred, and the absorbance (OD Value=450 nm) is immediately measured.
The standard used is one attached to the kit, the standard curve is drawn from the measured OD Value, and the concentration is calculated. […]

CCCCCCCCCCCCCCCCCC(=O)N[C@@H](CCCNC(=N)N)C(=O)NCCCCCCCCCCCC.Cl [SZ137, N-[(1S)-1-(dodecylcarbamoyl)-4-guanidino-butyl]octadecanamide hydrochloride]
anti-OVA-specific IgG1 subclass antibody production [1]: significantly increased
anti-OVA-specific IgG2a subclass antibody production [2]: significantly increased
anti-OVA-specific IgE antibody production ([3]; after secondary immunization, OVA 5 μg + compound 0.256 μmol in 5% αCD-added saline (Addavax mixed with saline at 1:1), dorsal-subcutaneous, compared to OVA single administration group): an increase in the anti-OVA-specific IgE antibody production was not observed
allergy inducing activity as compared to Addavax ([3]; conclusion from IgE after secondary immunization, compound in 5% αCD-added saline): may have a lower allergy inducing activity
